In patent US8741926B2, “Macrocyclic inhibitors of hepatitis C virus” (Tibotec Pharmaceuticals Ltd., priority 2005, dated 2014):

Legend:
[1] = system: HCV type 1b replicon in Huh-7 luc/neo (Huh-Luc) cells; assay: Replicon assay: inhibition of HCV RNA replication in Huh-Luc cells (luciferase); assay type: cell-based; settings: Hepatitis C virus, Huh-7, 72 h, luciferase activity, incubation of three days
Description: The in vitro antiviral activity against HCV of the compounds of formula (I) was tested in a cellular HCV replicon system based on Lohmann et al. (1999) Science 285:110-113, with the further modifications described by Krieger et al. (2001) Journal of Virology 75: 4614-4624, which is further exemplified in the examples section. This model, while not a complete infection model for HCV, is widely accepted as the most robust and efficient model of autonomous HCV RNA replication currently available. […] It will be appreciated that it is important to distinguish between compounds that specifically interfere with HCV functions from those that exert cytotoxic or cytostatic effects in the HCV replicon model, and as a consequence cause a decrease in HCV RNA or linked reporter enzyme concentration. Assays are known in the field for the evaluation of cellular cytotoxicity based for example on the activity of mitochondrial enzymes using fluorogenic redox dyes such as resazurin. Furthermore, cellular counter screens exist for the evaluation of non-selective inhibition of linked reporter gene activity, such as firefly luciferase. Appropriate cell types can be equipped by stable transfection with a luciferase reporter gene whose expression is dependent on a constitutively active gene promoter, and such cells can be used as a counter-screen to eliminate non-selective inhibitors.
The compounds of formula (I) were examined for activity in the inhibition of HCV RNA replication in a cellular assay. […] The cellular assay was based on a bicistronic expression construct, as described by Lohmann et al. (1999) Science vol. 285 pp. 110-113 with modifications described by Krieger et al. (2001) Journal of Virology 75: 4614-4624, in a multi-target screening strategy. In essence, the method was as follows.
The assay utilized the stably transfected cell line Huh-7 luc/neo (hereafter referred to as Huh-Luc). This cell line harbors an RNA encoding a bicistronic expression construct comprising the wild type NS3-NS5B regions of HCV type 1b translated from an Internal Ribosome Entry Site (IRES) from encephalomyocarditis virus (EMCV), preceded by a reporter portion (FfL-luciferase), and a selectable marker portion (neo^R, neomycine phosphotransferase). The construct is bordered by 5′ and 3′ NTRs (non-translated regions) from HCV type 1b. Continued culture of the replicon cells in the presence of G418 (neo^R) is dependent on the replication of the HCV RNA. The stably transfected replicon cells that express HCV RNA, which replicates autonomously and to high levels, encoding inter alia luciferase, are used for screening the antiviral compounds.
The replicon cells were plated in 384 well plates in the presence of the test and control compounds which were added in various concentrations. Following an incubation of three days, HCV replication was measured by assaying luciferase activity (using standard luciferase assay substrates and reagents and a Perkin Elmer ViewLux™ ultraHTS microplate imager). Replicon cells in the control cultures have high luciferase expression in the absence of any inhibitor. The inhibitory activity of the compound on luciferase activity was monitored on the Huh-Luc cells, enabling a dose-response curve for each test compound.

HCV NS3/4A protease = HCV NS3/4A protease (Hepatitis C virus genotype 1a (isolate H77) (HCV), UniProt P27958); assay: Inhibition assay (enzymatic assay) of full-length NS3 protease with NS4A cofactor; assay type: biochemical
Description: [Landro, 1997 #Biochem 36 9340-9348]. […] The solutions were stored at −20° C. between measurements.
[Liu, 1999 Analytical Biochemistry 267 331-335].

[2] = In vivo effects of ritonavir on the oral pharmacokinetics of Compound nr. 47 in rat; settings: male and female Sprague-Dawley rats, single oral 10 mg/kg Compound nr. 47, boosting with 10 mg/kg ritonavir about 30 minutes before, plasma
Description: Oral pharmacokinetics of Compound nr. 47 in male and female Sprague-Dawley rats after a single dose at 10 mg/kg, using a formulation in 50% PEG400/water and the influence of “boosting” with 10 mg/kg ritonavir were investigated.
Four male and four female Sprague-Dawley (SD)-rats (approx. body weight 200-250 g) were randomly divided into 2 groups of 2 males and females each (boosted and non-boosted) based on body weight. […] The animals were fasted shortly before the trial. Drinking water remained available ad libitum.
Rats from the non-boosted group received a single oral 10 mg/kg dose of Compound nr. 47, formulated as a 3 mg/ml 50% PEG400/water at pH 8. Rats from the boosted group received a single oral dose of ritonavir, about 30 minutes before single oral dosing with 10 mg/kg of Compound nr. 47. The drug formulations were administered by oral gavage.
From each rat, a 0.5 ml blood sample was collected at 0.5 h, 1 h, 2 h, 4 h and 8 h after dosing. Plasma concentrations were determined using HPLC-MS. Results are shown in the table 2 below, expressed as fold change in pharmacokinetic parameter of the boosted group as compared to the non-boosted group.

Sequence of HCV NS3/4A protease (P27958 1027-1657): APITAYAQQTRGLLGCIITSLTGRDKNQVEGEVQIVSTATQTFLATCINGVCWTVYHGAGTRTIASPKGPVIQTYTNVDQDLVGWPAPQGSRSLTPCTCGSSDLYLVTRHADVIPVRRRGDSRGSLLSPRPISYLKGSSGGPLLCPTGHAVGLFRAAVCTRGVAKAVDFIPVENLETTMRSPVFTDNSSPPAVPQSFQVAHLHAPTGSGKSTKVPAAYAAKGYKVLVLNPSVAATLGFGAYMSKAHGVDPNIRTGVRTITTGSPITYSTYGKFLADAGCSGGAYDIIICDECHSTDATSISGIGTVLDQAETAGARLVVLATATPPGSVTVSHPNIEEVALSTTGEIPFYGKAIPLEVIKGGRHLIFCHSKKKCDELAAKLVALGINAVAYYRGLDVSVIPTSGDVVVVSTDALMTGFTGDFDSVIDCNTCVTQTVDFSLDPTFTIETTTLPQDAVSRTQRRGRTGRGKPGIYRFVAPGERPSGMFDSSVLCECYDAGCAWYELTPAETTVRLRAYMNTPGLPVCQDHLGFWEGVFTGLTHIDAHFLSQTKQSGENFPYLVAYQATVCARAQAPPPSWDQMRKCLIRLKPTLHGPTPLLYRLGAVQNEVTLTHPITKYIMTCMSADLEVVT

## COc1ccc2c(O[C@@H]3C[C@H]4C(=O)N[C@]5(C(=O)NS(=O)(=O)C6CC6)C[C@H]5/C=C\CCCCN(C)C(=O)[C@@H]4C3)cc(-c3nc(C(C)C)cs3)nc2c1C [Compound 47, N-[17-[2-(4-isopropylthiazole-2-yl)-7-methoxy-8-methylquinolin-4-yloxy]-13-methyl-2,14-dioxo-3,13-diazatricyclo[13.3.0.0^4,6]octadec-7-ene-4-carbonyl](cyclopropyl)sulfonamide]
[1]
  EC50: 0.00618 µM
HCV NS3/4A protease
  Ki: 0.5 nM
[2]
  Cmax, fold change of the boosted group as compared to the non-boosted group: 2.2 fold change
